From patent publication US11447566B2, “Anti-tissue factor antibodies, antibody-drug conjugates, and related methods” (Iconic Therapeutics, Inc., priority 2018, dated 2022) come the findings set out here.

The subject of data set [1] is human thrombin generation (relipidated TF, normal pooled plasma). Nature of the data set: Thrombin generation assay (TGA). The format is biochemical. Conditions: 100 nM antibody, Example 18. As to the method:
(§1) The TGA assay was performed using the calibrated-automated-thrombogram (CAT) instrument manufactured and distributed by STAGO. The test method design was equivalent to a standard CAT assay measurement, except that the plasma source was NPP in citrate/CTI. […] Relipidated TF was added to a 96-well assay plate, followed by addition of the antibody/NPP mixture. After a 10-min incubation or directly after combining the relipidated TF with antibody/NPP, thrombin generation was initiated by the addition of calcium and the thrombin substrate. The STAGO software was used to report the following parameters: Peak IIa (highest thrombin concentration generated [nM]); Lag Time (time to IIa generation [min]); ETP (endogenous thrombin potential, area under the curve [nM×min]); and ttPeak (time to Peak IIa [min]).
as §1, with “was normal pooled plasma (NPP)” for “was NPP”, “in citrate supplemented with corn trypsin inhibitor (citrate/CTI).” for “in citrate/CTI.”
TGA assay was performed using the calibrated-automated-thrombogram (CAT) instrument manufactured and distributed by STAGO (Diagnostica Stago SAS, Asnieres sur Seine, France). […] The anti-TF antibodies were titrated at 0, 10, 50 and 100 nM and mixed with NPP in citrate/CTI. Relipidated TF was added to a 96-well assay plate, followed by addition of the antibody/NPP mixture. After a 10-min incubation or directly after combining the relipidated TF with antibody/NPP, thrombin generation was initiated by the addition of calcium and the thrombin substrate. The STAGO software was used to report the following parameters: Peak IIa (highest thrombin concentration generated on the thrombin generation curve [nM]); Lag Time (time from assay start to the moment 10 nM of thrombin is formed [min]); ETP (endogenous thrombin potential, area under the curve [nM×min]); and ttPeak (time from assay start to Peak IIa [min]). […] As used herein, the term “thrombin generation assay” (TGA) refers to the TGA used in this example.

The subject of a further data set is HUVECs. The data set can be described thus: G2/M arrest (phospho-Histone H3), HUVECs. Type of data set: cell-based, human. The conditions noted are these: 24 h treatment, with or without inflammatory cytokines. As to the method:
(§2) To further understand the resistance of endothelial cells to anti-TF ADCs, cell cycle progression was evaluated 24 h after addition of the cytokines and TF-specific ADCs. Arrest at the G2/M phase of the cell cycle was analyzed as previously described in Theunissen et al, Methods Enzymol, 2006, 409:251-284. Briefly, low-passage HUVECs (Lifeline Cell Technologies, Frederick, Md., USA), propagated in VascuLife VEGF-Mv Endothelial media (Lifeline Cell Technologies), and HCT-116 cells were seeded on 12-well plates. The next day, media was removed and replaced with fresh media (no cytokines) or media containing 5 ng/mL IL1-beta, 25 ng/mL TNF-alpha and 50 ng/mL VEGF (with cytokines). A titration of MMAE-linked ADCs or free MMAE was added to the cells. After 24 h of treatment, cells were fixed in ice-cold 70% ethanol. Subsequently, the cells were washed with flow cytometry buffer (PBS, 1% FBS, 0.1% Triton) and stained for 1 h with a 1:100 dilution of phospho-Histone H3 (Ser10) (D2C8 PE Conjugate, Cell Signaling Technology). After 2 washes, the cells were treated for 20 min with 100 μg/mL PureLink RNAse A (ThermoFisher Scientific), followed by the addition of the viability dye TO-PRO-3 Iodide (ThermoFisher Scientific). 40,000 events were collected on a Novocyte flow cytometer. In the Flowjo data analysis software cell doublets and aneuploid cells were excluded. […]

The subject of a further data set is HCT-116 cells. Nature of the data set: G2/M arrest (phospho-Histone H3), HCT-116 cells. The format is cell-based, human. Conditions: 24 h treatment. As to the method: as §2
Data set [2] relates to gastric adenocarcinoma PDX. The data set can be described thus: Gastric adenocarcinoma patient-derived xenograft model. Type of data set: in vivo, athymic nude mice. The conditions noted are these: end of the study (day 46). On the technique in general: A xenograft is tissue or cells of one species grown in another, often human tumour cells in immunodeficient mice.
Method: TF-positive PDX models were performed in athymic nude mice (Envigo, Indianapolis, Ind.) to evaluate the efficacy of the ADCs in vivo. The animals' care was in accordance with institutional guidelines. Study animals were implanted unilaterally on the left flank with tumor fragments.
Animals were removed from study and euthanized once tumor size reached 1200 mm^3 or skin ulceration was evident. In addition, the MTV curve for the treatment group in question was no longer shown once an animal was removed from study due to size. TGI and statistical analyses were conducted in the same manner as for the CDX studies.

Square brackets hold non-standard residues; d marks the D form. Peptide text beside a SMILES is read from it. * marks the point of attachment. Dolaproine = CO[C@@H]([C@@H]1CCCN1)[C@@H](C)C(=O)O; Dil = CC[C@H](C)[C@H](NC)[C@@H](CC(=O)O)OC; X1 = C[C@@H](N*)[C@@H](O)c1ccccc1; NMeV = CN[C@H](C(=O)O)C(C)C

On to “10H10: previously described TF-specific antibody (Versteeg et al., 2008; Teplyakov et al., 2017) [reference compound]”, for which the figures for the “reduction of the peak IIa concentration” value in data set [1] (10 min antibody pre-incubation) and in data set [1] (without antibody pre-incubation) were 48% and 34%, respectively.
Consider `CC[C@H](C)[C@@H]([C@@H](CC(=O)N1CCC[C@H]1[C@H](OC)[C@@H](C)C(=O)N[C@H](C)[C@@H](O)c1ccccc1)OC)N(C)C(=O)[C@@H](NC(=O)[C@@H](NC)C(C)C)C(C)C` [MMAE, monomethyl auristatin E] (H-[NMeV]V[Dil][Dolaproine]-X1), for which, in the data set with HUVECs, the “G2/M arrest, pH3-positive HUVECs” value is listed as “increase the phosphorylation of histone H3 to a similar extent”. Further, the “G2/M arrest, pH3-positive HCT-116 cells” value with HCT-116 cells was “increase the phosphorylation of histone H3 to a similar extent”.
Consider TF-011 ADC, for which, in data set [2], the complete responders was found to be 1 animals and the tumor-free survivors is reported as 5 animals.
